Where a chain is given by its changes, count along the chain named. Names may count otherwise. “And” between values parts separate entries of the source, which are not always exact repeats. Equal entries are not always repeated.
How the values were obtained:
Ethanol Red™ = experiment: Addition of benzoate, propionate and formate to ethanol fermentations (SSF of corn mash); assay type: cell-based, Saccharomyces cerevisiae; conditions: for Glycerol pH 3.8 (w/v %) / Glycerol pH 5 (w/v %) / ETOH pH 3.8 (w/v %) / ETOH pH 5 (w/v %) / % Boost over no added acid: 54 hours; for % Boost over no added acid: ethanol; for % Change from no added acid: glycerol
Protocol: Industrially prepared corn mash was obtained from Lincolnland (Liquozyme™ SODS liquefaction).
After 15 minutes, the flasks were swirled, but no other agitation took place.
The pH after liquefaction was 4.9 and was adjusted to various pHs for SSF. […] Glucoamylase SA (“GSA”)/Cellulase VD (“CVD”) enzyme blend was dosed to each tube of mash at 110 μg EP GSA/gDS and 30 μg EP CVD/gDS. […] Benzoic acid was added in the range of 0-0.8 mM. Propionic and Formic acid were added in the range of 0-30 mM. All acid additions were done prior to inoculation (i.e., before exponential growth).
Each tube was processed for HPLC analysis by deactivation with 150 μL of 40% v/v H2SO4, vortexing, centrifuging at 1460×g for 10 minutes, and filtering through a 0.45 μm Whatman PP filter. All samples were processed without further dilution.

zein = experiment: Relative activity assay of protease variants (zein micro titer plate); assay type: biochemical
In short: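 Relative activity is the ratio of zein clearance (A630 turbidity) at a higher versus lower temperature, e.g. 60/65 °C or 70/80 °C. Supernatants from 3-day yeast cultures applied to 0.05-0.1% zein agar in 20 mM sodium acetate pH 4.5 with zinc, incubated at least 4 h.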

[1] = acid Concentration 10 (mM), pH 3.8
[2] = acid Concentration 10 (mM), pH 5
[3] = acid Concentration 20 (mM), pH 3.8
[4] = acid Concentration 20 (mM), pH 5
[5] = acid Concentration 30 (mM), pH 3.8
[6] = acid Concentration 30 (mM), pH 5
[7] = acid Concentration 0.2 (mM), pH 3.8
[8] = acid Concentration 0.2 (mM), pH 5
[9] = acid Concentration 0.5 (mM), pH 3.8
[10] = acid Concentration 0.5 (mM), pH 5
[11] = acid Concentration 0.8 (mM), pH 3.8
[12] = acid Concentration 0.8 (mM), pH 5

CCC(=O)O [Propionic Acid, propionic acid]
Glycerol pH 3.8 (w/v %) (Ethanol Red™; Concentration 10 mM, pH 3.8): 0.985 w/v % | Glycerol pH 5 (w/v %) (Ethanol Red™; Concentration 10 mM, pH 5): 1.017 w/v % | Glycerol pH 3.8 (w/v %) (Ethanol Red™; Concentration 20 mM, pH 3.8): 0.896 w/v % | Glycerol pH 5 (w/v %) (Ethanol Red™; Concentration 20 mM, pH 5): 0.927 w/v % | Glycerol pH 3.8 (w/v %) (Ethanol Red™; Concentration 30 mM, pH 3.8): 0.654 w/v % | Glycerol pH 5 (w/v %) (Ethanol Red™; Concentration 30 mM, pH 5): 0.874 w/v % | ETOH pH 3.8 (w/v %) (Ethanol Red™; [1]): 13.2 w/v % | ETOH pH 5 (w/v %) (Ethanol Red™; [2]): 13.26 w/v % | ETOH pH 3.8 (w/v %) (Ethanol Red™; [3]): 11.67 w/v % | ETOH pH 5 (w/v %) (Ethanol Red™; [4]): 12.87 w/v % | ETOH pH 3.8 (w/v %) (Ethanol Red™; [5]): 3.064 w/v % | ETOH pH 5 (w/v %) (Ethanol Red™; [6]): 11.8064 w/v % | % Boost over no added acid (Ethanol Red™; [1]): −1.27% | % Boost over no added acid (Ethanol Red™; [2]): 2.2% and 2.21% | % Boost over no added acid (Ethanol Red™; [3]): −12.7% | % Boost over no added acid (Ethanol Red™; [4]): −0.84% | % Boost over no added acid (Ethanol Red™; [5]): −77.08% | % Boost over no added acid (Ethanol Red™; [6]): −9.03% | % Change from no added acid (Ethanol Red™; Concentration 10 mM, pH 3.8): −24.78% | % Change from no added acid (Ethanol Red™; Concentration 10 mM, pH 5): −24.26% | % Change from no added acid (Ethanol Red™; Concentration 20 mM, pH 3.8): −31.55% | % Change from no added acid (Ethanol Red™; Concentration 20 mM, pH 5): −30.95% | % Change from no added acid (Ethanol Red™; Concentration 30 mM, pH 3.8): −50.02% | % Change from no added acid (Ethanol Red™; Concentration 30 mM, pH 5): −34.94% | effect on ethanol production at pH 3.8 (Ethanol Red™; pH 3.8): negative effect

O=C(O)c1ccccc1 [Benzoic Acid, benzoic acid]
effect of acid addition on fermentation performance (Ethanol Red™): increases fermentation performance | Glycerol pH 3.8 (w/v %) (Ethanol Red™; Concentration 0.2 mM, pH 3.8): 1.159 w/v % | Glycerol pH 5 (w/v %) (Ethanol Red™; Concentration 0.2 mM, pH 5): 1.160 w/v % | Glycerol pH 3.8 (w/v %) (Ethanol Red™; Concentration 0.5 mM, pH 3.8): 1.091 w/v % | Glycerol pH 5 (w/v %) (Ethanol Red™; Concentration 0.5 mM, pH 5): 1.127 w/v % | Glycerol pH 3.8 (w/v %) (Ethanol Red™; Concentration 0.8 mM, pH 3.8): 1.041 w/v % | Glycerol pH 5 (w/v %) (Ethanol Red™; Concentration 0.8 mM, pH 5): 1.093 w/v % | ETOH pH 3.8 (w/v %) (Ethanol Red™; [7]): 13.73 w/v % | ETOH pH 5 (w/v %) (Ethanol Red™; [8]): 13.01 w/v % | ETOH pH 3.8 (w/v %) (Ethanol Red™; [9]): 13.6785 w/v % | ETOH pH 5 (w/v %) (Ethanol Red™; [10]): 13.23 w/v % | ETOH pH 3.8 (w/v %) (Ethanol Red™; [11]): 13.35 w/v % | ETOH pH 5 (w/v %) (Ethanol Red™; [12]): 13.39 w/v % | % Boost over no added acid (Ethanol Red™; [7]): 2.70% | % Boost over no added acid (Ethanol Red™; [8]): 0.27% | % Boost over no added acid (Ethanol Red™; [9]): 2.33% | % Boost over no added acid (Ethanol Red™; [10]): 1.96% | % Boost over no added acid (Ethanol Red™; [11]): −0.12% | % Boost over no added acid (Ethanol Red™; [12]): 3.20% | % Change from no added acid (Ethanol Red™; Concentration 0.2 mM, pH 3.8): −11.47% | % Change from no added acid (Ethanol Red™; Concentration 0.2 mM, pH 5): −13.60% | % Change from no added acid (Ethanol Red™; Concentration 0.5 mM, pH 3.8): −16.65% | % Change from no added acid (Ethanol Red™; Concentration 0.5 mM, pH 5): −16.08% | % Change from no added acid (Ethanol Red™; Concentration 0.8 mM, pH 3.8): −20.45% | % Change from no added acid (Ethanol Red™; Concentration 0.8 mM, pH 5): −18.58%

O=CO [Formic Acid, formic acid]
effect of acid addition on fermentation performance (Ethanol Red™): boost | Glycerol pH 3.8 (w/v %) (Ethanol Red™; Concentration 10 mM, pH 3.8): 1.078 w/v % | Glycerol pH 5 (w/v %) (Ethanol Red™; Concentration 10 mM, pH 5): 1.175 w/v % | Glycerol pH 3.8 (w/v %) (Ethanol Red™; Concentration 20 mM, pH 3.8): 1.070 w/v % | Glycerol pH 5 (w/v %) (Ethanol Red™; Concentration 20 mM, pH 5): 1.117 w/v % | Glycerol pH 3.8 (w/v %) (Ethanol Red™; Concentration 30 mM, pH 3.8): 0.966 w/v % | Glycerol pH 5 (w/v %) (Ethanol Red™; Concentration 30 mM, pH 5): 1.111 w/v % | ETOH pH 3.8 (w/v %) (Ethanol Red™; [1]): 13.69 w/v % | ETOH pH 5 (w/v %) (Ethanol Red™; [2]): 13.1 w/v % | ETOH pH 3.8 (w/v %) (Ethanol Red™; [3]): 13.41 w/v % | ETOH pH 5 (w/v %) (Ethanol Red™; [4]): 13.22 w/v % | ETOH pH 3.8 (w/v %) (Ethanol Red™; [5]): 6.458 w/v % | ETOH pH 5 (w/v %) (Ethanol Red™; [6]): 13.2 w/v % | % Boost over no added acid (Ethanol Red™; [1]): 2.45% | % Boost over no added acid (Ethanol Red™; [2]): 0.94% | % Boost over no added acid (Ethanol Red™; [3]): 0.31% | % Boost over no added acid (Ethanol Red™; [4]): 1.84% | % Boost over no added acid (Ethanol Red™; [5]): −51.69% | % Boost over no added acid (Ethanol Red™; [6]): 1.70% | % Change from no added acid (Ethanol Red™; Concentration 10 mM, pH 3.8): −17.68% | % Change from no added acid (Ethanol Red™; Concentration 10 mM, pH 5): −12.49% | % Change from no added acid (Ethanol Red™; Concentration 20 mM, pH 3.8): −18.24% | % Change from no added acid (Ethanol Red™; Concentration 20 mM, pH 5): −16.81% | % Change from no added acid (Ethanol Red™; Concentration 30 mM, pH 3.8): −26.19% | % Change from no added acid (Ethanol Red™; Concentration 30 mM, pH 5): −17.26%

B1: JTP146: protease variant of SEQ ID NO: 3: S50P D79L S87P A112P D142L (protein, listed as Thermoascus aurantiacus)
chain: MRLVASLTALVALSVPVFPAAVNVKRASSYLEITLSQVSNTLIKAVVQNTGSDELSFVHLNFFKDPAPVKKVSVYRDGSEVQFEGILSRYKSTGLSRDAFTYLAPGESVEDVFDIASTYDLTSGGPVTIRTEGVVPYATANSTDIAGYISYSSNVLTIDVDGAAAATVSKAITPLDRRTRISSCSGSRQSALTTALRNAASLANAAADAAQSGSASKFSEYFKTTSSPTRQTVAARLRAVAREASSSSSGATTYYCLDPYGYCSPNVLAYTLPSYNIIANCDIFYTYLPPLTSTCHAQDQATTALHEFTHAPGVYSPGTLDLAYGYQAAMGLSSSQAVMNADTYALYANAIYLGC
Relative activity 75° C./70° C. (zein; Table 5, upper part): 83% | Relative activity 80° C./70° C. (zein; Table 5, upper part): 63%

B2: JTP213: protease variant of SEQ ID NO: 3: A27K Y82F D104P A112P A126V D142L (protein, listed as Thermoascus aurantiacus)
chain: B1 chain with A205K, P228S, L257D, Y260F, P265S, D282P, A304V
Relative activity 75° C./70° C. (zein; Table 5, lower part): 103% | Relative activity 80° C./70° C. (zein; Table 5, lower part): 37%

B3: JTP210: protease variant of SEQ ID NO: 3: A27K Y82F S87G D104P A112P A126V D142L (protein, listed as Thermoascus aurantiacus)
chain: B1 chain with A205K, P228S, L257D, Y260F, P265G, D282P, A304V
Relative activity 75° C./70° C. (zein; Table 5, lower part): 107% | Relative activity 80° C./70° C. (zein; Table 5, lower part): 36%

B4: JTP148: protease variant of SEQ ID NO: 3: D79L S87P D104P A112P D142L (protein, listed as Thermoascus aurantiacus)
chain: B1 chain with P228S, D282P
Relative activity 75° C./70° C. (zein; Table 5, upper part): 76% | Relative activity 80° C./70° C. (zein; Table 5, upper part): 64%

B5: JTP189: protease variant of SEQ ID NO: 3: D79L Y82F S87G A112P A126V D142L (protein, listed as Thermoascus aurantiacus)
chain: B1 chain with P228S, Y260F, P265G, A304V
Relative activity 80° C./70° C. (zein; Table 5, upper part): 46%

Reference: patent publication US20170283834A1, “Processes for Producing A Fermentation Product Using A Fermenting Organism” (Novozymes A/S, priority 2014, published 2017)
